Patent US5731353A, “Stilbene derivatives and pharmaceutical compositions containing them” (Ajinomoto Co., Inc., priority 1993, dated 1998)
Values after ≈ are worked out from the molar mass of the structure shown. Like-named read-outs stand apart in the source and are kept apart here.

Assays:
[1] = test system: Colon 26; assay: Evaluation of Antitumor Activity: Colon 26 inoculated sc into CD2F1 mice; type: in vivo; settings: tumor volume 21 days after the day of administration
Description: Colon 26 was inoculated sc into CD2F1 mice. After a week, the size of the tumor was measured and the volume of the tumor was calculated. Mice were selected on the basis of the volume of the tumor and administration of drug was begun. Twenty-one days after the day of administration, the size of the tumor was measured and the volume of the tumor was calculated. The inhibition ratio of growth of tumor (I.R.) was calculated as shown below. I.R.(%)={1-(Average Tumor Volume of Treated Mice)/(Average Tumor Volume of Control Mice)}×100

[2] = test system: Mouse P388 leukemia cells; assay: Cytotoxicity Testing: 50% growth-inhibiting concentration, MTT method; type: cell-based; settings: read-out: in vitro IC50 (50% growth-inhibiting concentration)
Description: Mouse P388 leukemia cells were used as cancer cells for this test. The cancer cells were incubated in RPMI-1640 medium containing 5 μM 2-mercaptoethanol and 10% fetal calf serum. More specifically, the cancer cells were seeded in a 96-well microplate in an amount of 1×10^4cell/50 μl/well, 25 μl/well of an aqueous solution of the test compound mentioned below (4 μg/ml) were added to each well, and the cells were incubated therein for 2 days at 37° C. After the incubation, the number of the living cells was counted using the MTT method and a dose-reaction curve was formed from the counted data. Based on the curve, the 50% growth-inhibiting concentration (IC50) of the test compound was calculated. As a comparative compound, Combretastatin A-4 was used.

[3] = Solubility in phosphate buffer (pH 7.0), HPLC of supernatant; type: physicochemical
Description: An excess amount of each sample was dissolved in 0.1 ml of phosphate buffer (PH 7.0). The mixture was sonicated and centrifuged. The supernatant was subjected to HPLC and the solubility was measured.

[4] = 48 h, mouse P388 leukemia cells, 2 days at 37° C., MTT method
[5] = aqueous buffer, pH 7.0, read-out: Solubility in Phosphate Buffer (PH 7.0)
[6] = 40 mg/day, once a day on day 1, day 5 and day 7, perorally
[7] = 40 mg/day, once a day on day 1, day 5 and day 7, intravenously

SMILES: COc1cc(/C(C#N)=C\c2ccc(Cl)c(N)c2)cc(OC)c1OC [(E)-3-(3-amino-4-chlorophenyl)-2-(3,4,5-trimethoxyphenyl)-prop-2-ene-nitrile]
- in vivo I.R. (inhibition ratio of growth of tumor) ([1]; 80 mg/day, once a day on day 1, day 5 and day 7, perorally): 23.7%
- IC50 [2, 4]: 1.8 ng/mL (≈ 0.00522 µM)

SMILES: COc1ccc(/C=C(/C#N)c2cc(OC)c(OC)c(OC)c2)cc1N [(E)-3-(3-amino-4-methoxyphenyl)-2-(3,4,5-trimethoxyphenyl)-prop-2-ene-nitrile]
- in vivo I.R. (inhibition ratio of growth of tumor) ([1]; 10 mg/day, once a day from day 1 to day 10, intravenously): 83.4%
- IC50 [2, 4]: 0.2 ng/mL (≈ 0.000588 µM)
- solubility [3, 5]: 1700 µg/mL (≈ 4990 µM)

SMILES: COc1cc(/C(C#N)=C\c2ccc(C)c(N)c2)cc(OC)c1OC [(E)-3-(3-amino-4-methylphenyl)-2-(3,4,5-trimethoxyphenyl)-prop-2-ene-nitrile]
- in vivo I.R. (inhibition ratio of growth of tumor) [1, 6]: 41.0%
- IC50 [2, 4]: 2 ng/mL (≈ 0.00617 µM)

SMILES: COc1ccc(/C=C\c2cc(OC)c(OC)c(OC)c2)cc1N [(Z)-1-(3-Amino-4-methoxyphenyl)-2-(3,4,5-trimethoxyphenyl)ethene]
- in vivo I.R. (inhibition ratio of growth of tumor) [1, 7]: 69.5%
- IC50 [2, 4]: 0.2 ng/mL (≈ 0.000634 µM)
- solubility [3, 5]: 34000 µg/mL (≈ 108000 µM)

SMILES: COc1cc(/C=C\c2ccc(Cl)c(N)c2)cc(OC)c1OC [(Z)-1-(3-amino-4-chlorophenyl)-2-(3,4,5-trimethoxyphenyl)ethene]
- IC50 ([2]; Mus musculus, P388, 48 h): 20 ng/mL (≈ 0.0625 µM)

SMILES: COc1cc(/C=C\c2ccc(C)c(N)c2)cc(OC)c1OC [(Z)-1-(3-amino-4-methylphenyl)-2-(3,4,5-trimethoxyphenyl)ethene]
- in vivo I.R. (inhibition ratio of growth of tumor) [1, 7]: 61.6%
- IC50 ([2]; Mus musculus, P388, 48 h): 3.5 ng/mL (≈ 0.0117 µM)

SMILES: COc1ccc(/C=C\c2cc(OC)c(OC)c(OC)c2)cc1O [Combretastatin A-4, reference compound]
- in vivo I.R. (inhibition ratio of growth of tumor) [1, 6]: 4.6%
- IC50 [2, 4]: 0.2 ng/mL (≈ 0.000632 µM)
- solubility ([3]; pH 7, aqueous buffer): < 100 µg/mL
